Source: ChEMBL document CHEMBL1156487, “Proximity-accelerated chemical coupling reaction in the benzodiazepine-binding site of gamma-aminobutyric acid type A receptors: superposition of different allosteric modulators” (J Biol Chem, 2007)
Active and inactive are the calls of the source. The rule behind the calls is not given here.

Tests used:
[1] = (§1) Activity at rat […] GABAA alpha-1V202Cbeta-2-gamma-2 mutant receptor expressed in xenopus oocytes assessed as GABA-elicited response by two electrode voltage clamp method relative to control; assay type: cell-based; details: Oocyte
Oocyte [2] = test: as §1; assay type: cell-based
[3] = (§2) Activity at rat […] GABAA alpha-1V211Cbeta-2-gamma-2 mutant receptor expressed in xenopus oocytes assessed as GABA-elicited response by two electrode voltage clamp method relative to control; assay type: cell-based; details: Oocyte
Oocyte [4] = test: as §2; assay type: cell-based
Oocyte [5] = test: Activity at rat GABAA alpha-1H101Cbeta-2-gamma-2 mutant receptor expressed in xenopus oocytes assessed as change in GABA-induced current amplitude at 10 uM after 1 min exposure to GABA by two electrode voltage clamp method; assay type: cell-based
[6] = (§3) Activity at rat […] GABAA alpha-1H101Cbeta-2-gamma-2 mutant receptor expressed in xenopus oocytes assessed as GABA-elicited response by two electrode voltage clamp method relative to control; assay type: cell-based; details: Oocyte
Oocyte [7] = test: as §3; assay type: cell-based
[8] = (§4) Activity at rat […] GABAA alpha-1G157Cbeta-2-gamma-2 mutant receptor expressed in xenopus oocytes assessed as GABA-elicited response by two electrode voltage clamp method relative to control; assay type: cell-based; details: Oocyte
Oocyte [9] = test: as §4; assay type: cell-based
Oocyte [10] = test: Activity at rat GABAA alpha-1H101Cbeta-2-gamma-2 mutant receptor expressed in xenopus oocytes assessed as change in GABA-induced current amplitude at 1 uM after 1 min exposure to GABA by two electrode voltage clamp method; assay type: cell-based
Oocyte [11] = test: Activity at rat GABAA alpha-1H101Cbeta-2-gamma-2 mutant receptor expressed in xenopus oocytes assessed as change in GABA-induced current amplitude at 500 nM by two electrode voltage clamp method in presence of L-cysteine; assay type: cell-based
Oocyte [12] = test: Activity at rat GABAA alpha-1H101Cbeta-2-gamma-2 mutant receptor expressed in xenopus oocytes assessed as change in GABA-induced current amplitude at 10 nM to 1 uM after 1 min exposure to GABA by two electrode voltage clamp method; assay type: cell-based
Oocyte [13] = test: Activity at rat GABAA alpha-1H101Cbeta-2-gamma-2 mutant receptor expressed in xenopus oocytes assessed as change in GABA-induced current amplitude first phase stimulation at 3 uM by two electrode voltage clamp method; assay type: cell-based
Oocyte [14] = test: Activity at rat GABAA alpha-1H101Cbeta-2-gamma-2 mutant receptor expressed in xenopus oocytes assessed as change in GABA-induced current amplitude second phase stimulation at 3 uM by two electrode voltage clamp method; assay type: cell-based
Oocyte [15] = test: Activity at rat GABAA alpha-1G157Cbeta-2-gamma-2 mutant receptor expressed in xenopus oocytes assessed as change in GABA-induced current amplitude at 1 uM after 1 min exposure to GABA by two electrode voltage clamp method; assay type: cell-based
Oocyte [16] = test: Activity at rat GABAA alpha-1V202Cbeta-2-gamma-2 mutant receptor expressed in xenopus oocytes assessed as change in GABA-induced current amplitude at 1 uM after 1 min exposure to GABA by two electrode voltage clamp method; assay type: cell-based
Oocyte [17] = test: Activity at rat GABAA alpha-1V211Cbeta-2-gamma-2 mutant receptor expressed in xenopus oocytes assessed as change in GABA-induced current amplitude at 1 uM after 1 min exposure to GABA by two electrode voltage clamp method; assay type: cell-based
HEK293 [18] = test: Displacement of [3H]Ro15-1788 from rat GABAA alpha-1H101Cbeta-2-gamma-2 mutant receptor expressed in HEK293 cells assessed as residual binding after pretreatment of L-cysteine at 30 nM after 1 hr by liquid scintillation counting; assay type: cell-based
HEK293 [19] = test: Displacement of [3H]Ro15-1788 from rat GABAA alpha-1H101Cbeta-2-gamma-2 mutant receptor expressed in HEK293 cells assessed as residual binding without pretreatment of L-cysteine at 30 nM after 1 hr by liquid scintillation counting; assay type: cell-based
HEK293 [20] = test: Displacement of [3H]Ro15-1788 from rat GABAA alpha-1H101Cbeta-2-gamma-2 mutant receptor expressed in HEK293 cells assessed as residual binding at 10 nM after 1 hr by liquid scintillation counting; assay type: cell-based
HEK293 [21] = test: Displacement of [3H]Ro15-1788 from rat GABAA alpha-1H101Cbeta-2-gamma-2 mutant receptor expressed in HEK293 cells assessed as residual binding at 10 nM after 1 hr by liquid scintillation counting in presence of Ro15-1788; assay type: cell-based
HEK293 [22] = test: Displacement of [3H]Ro15-1788 from rat GABAA alpha-1H101Cbeta-2-gamma-2 mutant receptor expressed in HEK293 cells assessed as residual binding at 10 nM after 1 hr by liquid scintillation counting in presence of flunitrazepam; assay type: cell-based
[23] = Displacement of [3H]Ro15-1788 from rat GABAA alpha-1H101Cbeta-2-gamma-2 mutant receptor expressed in HEK293 cells after 1 hr assessed as residual binding by liquid scintillation counting; assay type: cell-based
[24] = Displacement of [3H]Ro15-1788 from rat GABAA alpha-1-beta-2-gamma-2S receptor expressed in HEK293 cells by liquid scintillation counting; assay type: cell-based
HEK293 [25] = test: Displacement of [3H]Ro15-1788 from rat GABAA alpha-1H101Cbeta-2-gamma-2 mutant receptor expressed in HEK293 cells assessed as residual binding at 100 nM after 1 hr by liquid scintillation counting; assay type: cell-based
HEK293 [26] = test: Displacement of [3H]Ro15-1788 from rat GABAA alpha-1G157Cbeta-2-gamma-2 mutant receptor expressed in HEK293 cells assessed as residual binding at 100 nM after 1 hr by liquid scintillation counting; assay type: cell-based
HEK293 [27] = test: Displacement of [3H]Ro15-1788 from rat GABAA alpha-1V202Cbeta-2-gamma-2 mutant receptor expressed in HEK293 cells assessed as residual binding at 100 nM after 1 hr by liquid scintillation counting; assay type: cell-based
HEK293 [28] = test: Displacement of [3H]Ro15-1788 from rat GABAA alpha-1V211Cbeta-2-gamma-2 mutant receptor expressed in HEK293 cells assessed as residual binding at 100 nM after 1 hr by liquid scintillation counting; assay type: cell-based
[29] = biological target: T1, Gamma-aminobutyric acid receptor subunit alpha-1 (Homo sapiens) (UniProt P14867); details: Rattus norvegicus; Oocyte; 1 uM
T1 sequence (whole entry): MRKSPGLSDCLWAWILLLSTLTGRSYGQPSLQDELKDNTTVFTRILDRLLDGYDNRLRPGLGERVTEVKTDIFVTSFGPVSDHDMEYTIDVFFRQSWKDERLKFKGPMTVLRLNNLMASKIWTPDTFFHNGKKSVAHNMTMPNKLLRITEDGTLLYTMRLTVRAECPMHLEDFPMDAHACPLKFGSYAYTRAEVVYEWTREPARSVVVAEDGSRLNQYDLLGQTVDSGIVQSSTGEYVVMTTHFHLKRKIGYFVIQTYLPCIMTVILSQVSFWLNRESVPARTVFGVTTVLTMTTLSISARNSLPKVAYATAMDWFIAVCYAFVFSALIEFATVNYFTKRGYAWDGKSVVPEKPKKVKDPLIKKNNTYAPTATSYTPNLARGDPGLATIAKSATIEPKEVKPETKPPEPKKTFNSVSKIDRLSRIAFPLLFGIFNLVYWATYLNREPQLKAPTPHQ
Description: Activity at rat wild type GABAA alpha-1-beta-2-gamma-2 receptor expressed in xenopus oocytes assessed as change in GABA-induced current amplitude at 1 uM after 1 min exposure to GABA by two electrode voltage clamp method

[30] = biological target: T1, Gamma-aminobutyric acid receptor subunit alpha-1 (Homo sapiens); details: Rattus norvegicus; Oocyte; 1 uM; remark: listed apart in the source
Description: Activity at rat wild type GABAA alpha-1-beta-2-gamma-2 receptor expressed in xenopus oocytes assessed as change in GABA-induced current amplitude at 1 uM after 5 min exposure to GABA by two electrode voltage clamp method

[31] = biological target: T1, Gamma-aminobutyric acid receptor subunit alpha-1 (Homo sapiens); details: Rattus norvegicus; Oocyte; 10 uM
Description: Activity at rat wild type GABAA alpha-1-beta-2-gamma-2 receptor expressed in xenopus oocytes assessed as change in GABA-induced current amplitude at 10 uM after 5 min by two electrode voltage clamp method

Q: Which EC50 [1] does the source give for `Cc1ccc(-c2nc3ccc(C)cn3c2CC(=O)N(C)C)cc1` [ZOLPIDEM] here?
A: 2.75 µM

Q: What about the max activation (Oocyte [2]) of the same compound?
A: 369%

Q: And the EC50 [3]?
A: 0.341 µM

Q: And the max activation (Oocyte [4])?
A: 127%

Q: What about the inhibition (Oocyte [5]) of the same compound?
A: 96%

Q: And the EC50 [6]?
A: 1.18 µM

Q: And the max activation (Oocyte [7])?
A: 162%

Q: And the EC50 [8]?
A: 2.63 µM

Q: And the max activation (Oocyte [9])?
A: 427%

Q: For `CCOC(=O)c1ncn2c1CN(C)C(=O)c1cc(N=[N+]=[N-])ccc1-2` [Ro-154513], which max activation (Oocyte [2]) is on record?
A: 9%

Q: And the EC50 [3]?
A: 0.044 µM

Q: And the max activation (Oocyte [4])?
A: -23%

Q: What about the EC50 [6] of the same compound?
A: 0.017 µM

Q: What about the max activation (Oocyte [7]) of the same compound?
A: 40%

Q: And the EC50 [8]?
A: 0.032 µM

Q: And the max activation (Oocyte [9])?
A: 36%

Q: What does the source list for `CCOC(=O)c1ncn2c1CN(C)C(=O)c1cc(F)ccc1-2` [FLUMAZENIL]?
A: max activation (Oocyte [2]): 1%; max activation (Oocyte [4]): 5%; inhibition (Oocyte [10]): 22%; EC50 [6]: 0.03 µM; max activation (Oocyte [7]): 22%; max activation (Oocyte [9]): -2%

Q: For `CCOC(=O)c1ncn2c1CN(C)C(=O)c1cc(N=C=S)ccc1-2`, which EC50 [1] is on record?
A: 0.668 µM

Q: What about the max activation (Oocyte [2]) of the same compound?
A: 16%

Q: What about the EC50 [3] of the same compound?
A: > 2 µM

Q: And the max activation (Oocyte [4])?
A: > 140%

Q: And the Activity (Oocyte [11])?
A: Active

Q: And the Activity (Oocyte [12])?
A: 362 nM

Q: And the inhibition (Oocyte [13])?
A: 53%

Q: What about the inhibition (Oocyte [14]) of the same compound?
A: 47%

Q: What about the inhibition (Oocyte [15]) of the same compound?
A: 88%

Q: What about the inhibition (Oocyte [16]) of the same compound?
A: 71%

Q: And the inhibition (Oocyte [17])?
A: 5%

Q: What about the Activity (HEK293 [18]) of the same compound?
A: 82%

Q: And the Activity (HEK293 [19])?
A: 18%

Q: What about the Activity (HEK293 [20]) of the same compound?
A: 29%

Q: And the Activity (HEK293 [21])?
A: 73%

Q: What about the Activity (HEK293 [22]) of the same compound?
A: 64%

Q: And the Kd [23]?
A: 0.0009 µM

Q: What about the EC50 [6] of the same compound?
A: 0.017 µM

Q: And the max activation (Oocyte [7])?
A: 90%

Q: And the EC50 [8]?
A: 0.034 µM

Q: And the max activation (Oocyte [9])?
A: 30%

Q: What about the Ki [24] of the same compound?
A: 0.01 µM

Q: What about the Activity (HEK293 [25]) of the same compound?
A: 85%

Q: What about the Activity (HEK293 [26]) of the same compound?
A: 50%

Q: And the Activity (HEK293 [27])?
A: 50%

Q: And the Activity (HEK293 [28])?
A: 50%

Q: What about the inhibition [29] of the same compound?
A: 3%

Q: And the inhibition [30]?
A: 4%

Q: And the inhibition [31]?
A: 8%
